System: HCT-15 human colon tumor xenograft
Assay: Subcutaneous HCT-15 colon tumor model in athymic nude mice
Type: in vivo
Conditions: for body weight losses, highest reached: 2.5-15 mg/kg
Text: All cell lines that are used in animal studies are free of Mycoplasma contamination (Rapid Detection System by Gen-Probe, Inc., San Diego, Calif.) and viral contamination (MAP testing by MA BioServices, Inc., Rockville, Md.). The HCT-15 human colon tumor cell line is purchased from the American Type Culture Collection, Rockville, Md., Accession Number ATCC CCL 225. The MIP 101 human colon tumor cell line is obtained from Dr. R. Kramer (Bristol Meyers Squibb) and was previously described (Niles R M, et al. Cancer Invest. 1987;5(6):545-52). These cells are Pgp-1 (human Pgp) overexpressors, making the cells resistant to paclitaxel. All cell lines are propagated and expanded in RPMI 1640 medium containing 10% heat-inactivated FBS (Life Technologies, Grand Island, N.Y.). Cell expansions for implantation are performed in T225 tissue culture flasks. Cells are harvested at 70-90% confluency, washed once with HBSS containing 10% FBS, and are suspended in plain HBSS.
Outbred athymic (nu/nu) female mice (“Hsd:Athymic Nude-nu” from Harlan Sprague Dawley, Indianapolis, Ind.) are anesthetized with Metofane (Mallinckrodt Veterinary, Inc., Mundelein, Ill.,). A cell suspension (100 μL) containing 1×10^6 cells is then injected sc into the right axillary (lateral) region of each animal. Tumors are allowed to grow until a volume of approximately 100 mm^3 was achieved. At this point, mice bearing tumors are sorted into groups of eight for the study. The sorting process produced groups balanced with respect to mean and range of tumor size.
Discodermolide is isolated from the sponge Discodermia dissoluta using the methods of (Gunasekera S P, et al. supra). Multiple batches of compound of similar purity (all>95% pure, as determined by mass spectrometry, and nuclear magnetic resonance analysis) are used throughout the various studies. Solid discodermolide is dissolved in pure ethanol to create a stock solution which is diluted just before dosing with Cremophor EL (Crm) and D5W to a final concentration of 16.7% Cremophor EL, 8.3% ethanol and 75% D5W. The compound is administered intravenously (iv). In the first study discodermolide is tested against both tumors at five different dosing schedules: (i.) 30 mg/kg dosed as two 15 mg/kg injections on day 1 of the experiment, (ii.) 30 mg/kg dosed as three 10 mg/kg injections on days 1, 2, and 3, (iii.) 15 mg/kg dosed as a single injection on day 1, (iv.) 20 mg/kg dosed as a 15 mg/kg injection on day 1, followed by a 5 mg/kg injection on day 11, and (v.) 10 mg/kg dosed as a 7.5 mg/kg injection on day 1 followed by a 2.5 mg/kg injection on day 11. In the second study discodermolide is dosed as one injection on the first day of the experiment, at 2.5 mg/kg, 5 mg/kg, 7.5 mg/kg, 10 mg/kg, 12.5 mg/kg, or 15 mg/kg. In addition the 7.5 mg/kg injection on day 1 followed by a 2.5 mg/kg injection on day 11 is repeated from the first study. The actual doses, regimens and routes of administration used for the specific models are discussed in each section separately. Positive control animals receive clinical formulations of paclitaxel (TAXOL) diluted 4-fold with D5W and administered iv once daily for five consecutive days. Vehicle control for paclitaxel is administered according to paclitaxel's schedule. In the first study vehicle controls for discodermolide (16.7% Cremophor EL, 8.3% ethanol and 75% D5W) are administered as three daily injections on days 1, 2, and 3, or as two injections on days 1, and 11. In the second study vehicle control for discodermolide is administered as a single injection on day 1.
Tumors are measured, and individual animal body weights are recorded once weekly. Standard experiments are conducted for 3 full weeks from the initial dosing.
Antitumor activity is expressed as % T/C (comparing Δ tumor volumes for treatment group to vehicle control group). […]

[1] = first study, 7.5 mg/kg day 1 + 2.5 mg/kg day 11
[2] = first study, discodermolide iv single 15 mg/kg injection on day 1
[3] = first study, two 15 mg/kg injections on day 1 (30 mg/kg total)
[4] = second study, 7.5 mg/kg day 1 + 2.5 mg/kg day 11

In the case of `C=C/C=C\[C@H](C)[C@H](OC(N)=O)[C@@H](C)[C@H](O)[C@@H](C)C/C(C)=C\[C@H](C)[C@@H](O)[C@@H](C)/C=C\[C@@H](O)C[C@@H]1OC(=O)[C@H](C)[C@@H](O)[C@H]1C` [discodermolide, (+)-Discodermolide], the “inhibition of tumor growth (in words)” value (HCT-15 xenograft, athymic nude mice) is reported as “statistically significant (p<0.01) and reproducible inhibition of tumor growth”, the T/C [1] is reported as 31% and the body weight loss [1] is reported as 17.3%. The “fate of the remaining four animals” value (first study, 15 mg/kg day 1 + 5 mg/kg day 11) was “sacrificed due to the excessive body weight loss”, the “animals that die in the second week” value (first study, 15 mg/kg day 1 + 5 mg/kg day 11, group of eight) was “Four animals” and the “fate of the animals” value (first study, 30 mg/kg as three 10 mg/kg injections on days 1, 2, 3, all animals) was “sacrificed in the beginning of the third week of the experiment due to excessive body weight loss”. It also gave a T/C [2] of 43%, a body weight loss [2] of 18.9% and a T/C [3] of 22%. For the same compound, the body weight loss [3] was 24.6%, the “body weight losses, highest reached” value (original dose response study (second)) was 13% and the “body weight losses, highest reached” value (repeat of the dose response study (third experiment)) was 23%. It also gave a T/C [4] of 29%, a body weight loss [4] of 11.4% and a T/C (second study, single injection 2.5 mg/kg day 1) of 62%. For the same compound, the body weight change (second study, single injection 2.5 mg/kg, gain) was 3.5%, the body weight change (second study, single injection 5 mg/kg) was −1.9% and the T/C (second study, single injection 5 mg/kg day 1) was 44%. The body weight change (second study, single injection 7.5 mg/kg) was −7.9%, the T/C (second study, single injection 7.5 mg/kg day 1) was 43% and the body weight change (second study, single injection 10 mg/kg) was −8.5%. It also gave a T/C (second study, single injection 10 mg/kg day 1) of 40%, a body weight change (second study, single injection 12.5 mg/kg) of −12.9% and a T/C (second study, single injection 12.5 mg/kg day 1) of 28%. The body weight change (second study, single injection 15 mg/kg) was −11.0%, the T/C (second study, single injection 15 mg/kg day 1) was 27% and the T/C (third study, single injection 2.5 mg/kg day 1) was 54%. The body weight change (third study, single injection 2.5 mg/kg, gain) was 1.7%, the body weight change (third study, single injection 5 mg/kg) was −8.9% and the T/C (third study, single injection 5 mg/kg day 1) was 43%. The body weight change (third study, single injection 7.5 mg/kg) was −23.3%, the T/C (third study, single injection 7.5 mg/kg day 1) was 23% and the body weight change (third study, single injection 10 mg/kg) was −17.6%. It also gave a T/C (third study, single injection 10 mg/kg day 1) of 27%, a body weight change (third study, single injection 12.5 mg/kg) of −20.1% and a T/C (third study, single injection 12.5 mg/kg day 1) of 25%. It also gave a body weight change (third study, single injection 15 mg/kg) of −13.4% and a T/C (third study, single injection 15 mg/kg day 1) of 19%.

Compound `CC(=O)O[C@H]1C(=O)[C@@]2(C)[C@H]([C@H](OC(=O)c3ccccc3)[C@]3(O)C[C@H](OC(=O)[C@H](O)[C@@H](NC(=O)c4ccccc4)c4ccccc4)C(C)=C1C3(C)C)[C@]1(OC(C)=O)CO[C@@H]1C[C@@H]2O` [paclitaxel, reference compound] has a T/C (first study, paclitaxel 15 mg/kg daily for the first 5 days) of 95%, a T/C (second study, paclitaxel iv once daily for five days) of 94% and a T/C (third study, paclitaxel iv once daily for five days) of 81%.

Source: patent publication US6774143B1, “Method for treating cells resistant to antineoplastic agents” (Novartis AG, priority 2003, dated 2004)
